Source: patent publication US8557840B2, “Herbicidal compounds” (Syngenta Limited, priority 2008, dated 2013)

What was measured:
Assay type in all cases: in vivo
[1] = system: test plants; assay: Herbicidal action, post-emergence (Example B2), all test plants, result in words; settings: same protocol as Example B2, post-emergence
Procedure: Seeds of a variety of test species were sown in standard soil in pots. After 8 days cultivation (post-emergence) under controlled conditions in a glasshouse (at 24/16° C., day/night; 14 hours light; 65% humidity), the plants were sprayed with an aqueous spray solution derived from the formulation of the technical active ingredient in acetone/water (50:50) solution containing 0.5% Tween 20 (polyoxyethelyene sorbitan monolaurate, CAS RN 9005-64-5). The test plants were then grown in a glasshouse under controlled conditions in a glasshouse (at 24/16° C., day/night; 14 hours light; 65% humidity) and watered twice daily. After 13 days, the test was evaluated (10=total damage to plant; 0=no damage to plant).

[2] = system: Nasturtium officinale; assay: Herbicidal action, post-emergence, seed trays in climatic chamber (Example B1); settings: 1000 g/ha, evaluated after 9 days, 10=total damage to plant, 0=no damage to plant
Procedure: (§1) Seeds of a variety of test species were sown in sterilised standard soil in seed trays each having 96 cells. […] The plants were grown in the climatic chamber after application at (24/19° C., day/night; 13 hours light; 50-60% humidity) and watered twice daily. After 9 days until the test was evaluated (10=total damage to plant, 0=no damage to plant)

[3] = system: Solanum nigrum; assay: as above; settings: 1000 g/ha, evaluated after 9 days, 10=total damage to plant, 0=no damage to plant
Procedure: as §1

[4] = system: Amaranthus retroflexus; assay: as above; settings: 1000 g/ha, evaluated after 9 days, 10=total damage to plant, 0=no damage to plant
Procedure: as §1

[5] = system: Stellaria media; assay: as above; settings: 1000 g/ha, evaluated after 9 days, 10=total damage to plant, 0=no damage to plant
Procedure: as §1

SMILES | damage to the test plants [1] | NAAOF damage to plant [2] | SOLNI damage to plant [3] | AMARE damage to plant [4] | STEME damage to plant [5]
Cc1cc2c(c(Cl)n1)c(OC(=O)C(C)(C)C)c(-c1c(F)ccc(F)c1Cl)c(=O)n2C [B5] | little or no damage |  |  |  | 
CCn1c(=O)c(-c2c(F)ccc(F)c2Cl)c(OC(=O)C(C)(C)C)c2cnccc21 [B1, 2,2-dimethyl-propionic acid 3-(2-chloro-3,6-difluoro-phenyl)-1-ethyl-2-oxo-1,2-dihydro-[1,6]naphthyridin-4-yl ester] | little or no damage |  |  |  | 
Cc1cc(Cl)c2c(OC(=O)C(C)(C)C)c(-c3c(F)ccc(F)c3Cl)c(=O)n(C)c2n1 [D19] | little or no damage |  |  |  | 
O=c1[nH]c2cccnc2c(O)c1-c1ccc(Cl)cc1Cl [A1] |  | 2 | 0 | 0 | 0
Cn1c(=O)c(-c2c(F)ccc(F)c2Cl)c(O)c2cccnc21 [D5] |  | 6 | 0 | 7 | 7
CCc1cc(C)cc(CC)c1-c1c(OC(=O)C(C)(C)C)c2cccnc2n(C)c1=O [D8] |  | 3 | 0 | 0 | 2
CC(C)(C)C(=O)Oc1c(-c2c(F)ccc(F)c2Cl)c(=O)[nH]c2ncncc12 [E1] | little or no damage |  |  |  | 
Cn1c(=O)c(-c2c(F)ccc(F)c2Cl)c(OC(=O)C(C)(C)C)c2cccnc21 [D9] |  | 2 | 0 | 3 | 2
CC(C)C(=O)Oc1c(-c2c(F)ccc(F)c2Cl)c(=O)n(C)c2ncccc12 [D7] |  | 0 | 0 | 6 | 3
Cn1c(=O)c(-c2c(F)ccc(F)c2Cl)c(OC(=O)C(C)(C)C)c2cc(Br)cnc21 [D13, 2,2-dimethyl-propionic acid 6-bromo-3-(2-chloro-3,6-difluoro-phenyl)-1-methyl-2-oxo-1,2-dihydro-[1,8]naphthyridin-4-yl ester] | little or no damage |  |  |  | 
CCc1cc(C)cc(CC)c1-c1c(OC(=O)C(C)C)c2cccnc2n(C)c1=O [D6, isobutyric acid 3-(2,6-diethyl-4-methyl-phenyl)-1-methyl-2-oxo-1,2-dihydro-[1,8]naphthyridin-4-yl ester] |  | 0 | 0 | 0 | 2
O=c1[nH]c2cccnc2c(O)c1-c1ccccc1OC(F)(F)F [A2] |  | 0 | 0 | 0 | 3
CCc1cc(C)cc(CC)c1-c1c(O)c2cccnc2n(C)c1=O [D20, 3-(2,6-diethyl-4-methyl-phenyl)-4-hydroxy-1-methyl-1H-[1,8]naphthyridin-2-one] |  | 5 | 0 | 0 | 5
Cn1c(=O)c(-c2c(F)ccc(F)c2Cl)c(OC(=O)C(C)(C)C)c2ncccc21 [A5] |  | 3 | 7 | 0 | 0
CCc1cc(C)cc(CC)c1-c1c(OC(=O)C(C)C)c2ncccc2n(C)c1=O [A6] |  | 6 | 6 | 3 | 8
Cn1c(=O)c(-c2c(F)ccc(F)c2Cl)c(O)c2ncccc21 [A3] |  | 4 | 3 | 6 | 3
O=c1[nH]c2cccnc2c(O)c1-c1cccnc1 [A7] |  | 2 | 0 | 0 | 6
